Values joined by “and” are separate entries in the source; they are usually repeats but may differ in a detail not shown here. Equal entries are not always repeated. Values belong to the molecule of their own block, whether it stands above or below them.
Assay: solvent given as SMILES
[1] = in c1ccc2c(c1)c1ccccc1n2-c1ccc(-c2ccc(-n3c4ccccc4c4ccccc43)cc2)cc1

emission maximum (in ClCCl): 513 nm
SMILES: CCCCCCCCOc1ccc(C2=C3C(C)=CC(C)=[N+]3[B-](F)(F)n3c(C)cc(C)c32)cc1

emission maximum (in CN(C)C=O): 658 nm | emission maximum (in ClC(Cl)Cl): 651 nm
SMILES: CC(C)(C)c1cc(C(C)(C)C)c2oc3c(c2c1)C=CN1C(=O)C2=C4c5oc6c(C(C)(C)C)cc(C(C)(C)C)cc6c5C=CN4C(=O)C2=C31

emission maximum (in ClCCl): 485 nm
SMILES: C(=C\c1ncc(-c2ccc(OCc3ccccc3)c(OCc3ccccc3)c2)o1)/c1cccc(N2CCCC2)c1

emission maximum (in ClCCl): 610 nm
SMILES: Cc1cc(C)c(C2=C3C=C(/C=C/C(=O)OC(C)(C)C)C=[N+]3[B-](F)(F)n3cc(/C=C/C(=O)OC(C)(C)C)cc32)c(C)c1

emission maximum (in CC#N): 579.08 nm
SMILES: Cn1ccc(-c2nc3ccccc3nc2/C=C/N2CCCC2)c1

emission maximum (in ClC(Cl)Cl): 733 nm | emission maximum (in ClCCl): 733 nm
SMILES: COc1ccc2cc(C3=[N+]4C(=Nc5c(-c6ccccc6)cc(-c6ccc7cc(OC)ccc7c6)n5[B-]4(F)F)C(c4ccccc4)=C3)ccc2c1

emission maximum (in ClCCl): 537 nm
SMILES: COc1ccc(-c2cnc3cccc(-c4ccc(C(C)=O)cc4)n23)cc1

emission maximum (in CC#N): 561 nm | emission maximum (in ClCCl): 573 nm
SMILES: Cc1cc(O)c(C(=O)/C=C/c2ccc(N(C)C)cc2)c(=O)o1

emission maximum (in O): 389 nm
SMILES: Cc1cn(C)c(=O)nc1-n1cncn1

emission maximum (in ClC(Cl)Cl): 414 nm
SMILES: O=Cc1ccc(Oc2ccc3c4c(cccc24)C(=O)N(CCO)C3=O)cc1

emission maximum (in C1CCOC1): 637 nm | emission maximum (in CCCCCC): 637 nm | emission maximum (in CO): 637 nm | emission maximum (in CS(C)=O): 639 nm | emission maximum (in ClC(Cl)Cl): 637 nm | emission maximum (in ClCCl): 638 nm
SMILES: CC1=[N+]2C(=c3c4c5ccccc5cc5cccc(c6cc(C)n(c36)[B-]2(F)F)c54)C=C1

emission maximum (in ClCCl): 580 nm
SMILES: CCC1=C(C)C2=C(/C=C/Sc3ccccc3)c3c(C)c(CC)c(C)n3[B-](F)(F)[N+]2=C1C

emission maximum (in CC#N): 420 nm
SMILES: CCNc1cc2oc(=O)cc(C)c2cc1C

emission maximum (in ClCCl): 456 nm
SMILES: CCOC(=O)C1=C(C(=O)OCC)C2(c3cc(Cl)ccc3-c3ccc(Cl)cc32)C2(/C=C/c3ccccc3)c3cc(OC)c(OC)cc3CCN12 (centres undefined)

emission maximum (in ClCCl): 661 nm
SMILES: CC(C)[Si](C#Cc1c2cc3ccccc3cc2c(C#Cc2ccccc2)c2cc3ccccc3cc12)(C(C)C)C(C)C

More lines, now with the values behind:

SMILES: Cc1csc2[n+]1[B-](F)(F)n1c(c3cccc4cccc1c43)=N2
emission maximum (in C1CCOC1): 500 nm | emission maximum (in CC#N): 499 nm | emission maximum (in CCCCCC): 488 nm | emission maximum (in Cc1ccccc1): 502 nm | emission maximum (in ClCCl): 527 nm

SMILES: Oc1ccccc1/N=C/c1ccccc1Oc1ccccc1
emission maximum (in C1CCCCC1): 413 nm | emission maximum (in C1CCOC1): 412 nm | emission maximum (in C1COCCO1): 410 nm | emission maximum (in CC#N): 410 nm | emission maximum (in CC(C)=O): 410 nm | emission maximum (in CC(C)CO): 409 nm | emission maximum (in CC(C)O): 406 nm | emission maximum (in CCCCC): 425 nm | emission maximum (in CCCCCCCCO): 414 nm | emission maximum (in CCCCCCCO): 410 nm | emission maximum (in CCCCCCO): 410 nm | emission maximum (in CCCCO): 395 nm | emission maximum (in CCCCOC(C)=O): 409 nm | emission maximum (in CCCO): 410 nm | emission maximum (in CCO): 408 nm | emission maximum (in CCOC(C)=O): 400 nm | emission maximum (in CCOCC): 420 nm | emission maximum (in CN(C)C=O): 418 nm | emission maximum (in CO): 414 nm | emission maximum (in CS(C)=O): 410 nm | emission maximum (in Cc1ccccc1): 411 nm | emission maximum (in Cc1ccccc1C): 412 nm | emission maximum (in ClC(Cl)Cl): 410 nm | emission maximum (in ClCCl): 415 nm | emission maximum (in N#Cc1ccccc1): 410 nm | emission maximum (in OCCO): 415 nm | emission maximum (in c1ccccc1): 410 nm

SMILES: O=P(c1c2ccccc2cc2ccccc12)(c1c2ccccc2cc2ccccc12)c1c2ccccc2cc2ccccc12
emission maximum (in C1CCOC1): 452 nm

SMILES: c1ccc2c(-n3c(-c4ccc(-c5ccc(-c6nc7c8ccccc8c8ccccc8c7n6-c6cccc7ccccc67)c6ccccc56)c5ccccc45)nc4c5ccccc5c5ccccc5c43)cccc2c1
emission maximum (in ClCCl): 428 nm

SMILES: c1ccc(N(c2ccccc2)c2ccc3c(ccc4nc5ccc6cc(N(c7ccccc7)c7ccccc7)ccc6c5nc43)c2)cc1
emission maximum (in C1CCCCC1): 492 nm | emission maximum (in C1CCOC1): 552 nm | emission maximum (in CN(C)C=O): 626 nm | emission maximum (in Cc1ccccc1): 512 nm | emission maximum (in ClCCl): 576 nm

SMILES: C=Cc1cc2ccccc2oc1=O
emission maximum (in CC#N): 413 nm

SMILES: CCn1c2ccccc2c2cc(C#Cc3cc(C#Cc4ccc5c(c4)c4ccccc4n5CC)nc(SC)n3)ccc21
emission maximum (in C1CCOC1): 449 nm | emission maximum (in CCOC(C)=O): 446 nm | emission maximum (in CN(C)C=O): 502 nm | emission maximum (in Cc1ccccc1): 416 nm | emission maximum (in ClCCl): 471 nm

SMILES: C1=CC2=CC=CC3C=c4c(cc5cccc6cccc4c65)C(=C1)C23 (centres undefined)
emission maximum (in ClCCl): 574 nm

SMILES: C(=C(c1ccccc1)c1ccccc1)c1ccc(-c2ccc(-c3nc4c5ccccc5c5ccccc5c4n3-c3cccc(-c4ccc(C=C(c5ccccc5)c5ccccc5)cc4)c3)cc2)cc1
emission maximum (in C1CCOC1): 449 nm

SMILES: CC1(C)CC(=O)c2c(F)c(C(F)(F)F)c(F)c(F)c2N1
emission maximum (in CC#N): 419 nm | emission maximum (in CCO): 453 nm

SMILES: CN1C(=CC2=C([O-])C(=CC3=[N+](C)c4ccccc4C3(C)C)C2=C2C(=O)NC(=O)NC2=O)C(C)(C)c2ccccc21
emission maximum (in ClC(Cl)Cl): 665 nm

SMILES: Nc1ccc2nc3c4ccccc4c(=[NH2+])cc-3oc2c1
emission maximum (in CCO): 619 nm

SMILES: CCOc1cc2c(cc1/C=C/C1=CC(=C(C#N)C#N)CC(C)(C)C1)c1ccccc1n2CC
emission maximum (in C1CCOC1): 610 nm | emission maximum (in CC#N): 629 nm | emission maximum (in CCO): 632 nm | emission maximum (in CCOC(C)=O): 591 nm | emission maximum (in CN(C)C=O): 635 nm | emission maximum (in CS(C)=O): 641 nm | emission maximum (in Cc1ccccc1): 578 nm | emission maximum (in ClC(Cl)Cl): 608 nm | emission maximum (in ClCCl): 617 nm

SMILES: C1=C(c2ccc(-c3cccs3)s2)CCCC1
emission maximum (in C1CCOC1): 423 nm | emission maximum (in CC#N): 415 nm | emission maximum (in CCCCCC): 411 nm | emission maximum (in CCO): 445 nm | emission maximum (in OCCOCCO): 446 nm | emission maximum (in c1ccncc1): 423 nm

SMILES: C(=C\c1nc2c3ccccc3c3ccccc3c2o1)/c1ccccc1
emission maximum (in CC#N): 434 nm

SMILES: N#Cc1c(N2CCCCC2)cc(-c2ccccc2)c2c1Cc1ccccc1-2
emission maximum (in C1CCOC1): 449 nm

SMILES: Fc1nc(F)c(F)c(C#Cc2ccccc2C#Cc2c(F)c(F)nc(F)c2F)c1F
emission maximum (in CC#N): 370 nm

SMILES: c1ccc(-n2c(-c3c(-n4c5ccccc5c5ccccc54)cccc3-n3c4ccccc4c4ccccc43)nc3ccccc32)cc1
emission maximum (in C1CCOC1): 418 nm

SMILES: CCCCCCN1C(=O)C(c2ccc(-c3ccc(-n4c5ccccc5c5ccccc54)cc3)cc2)=C(c2ccc(-c3ccc(-n4c5ccccc5c5ccccc54)cc3)cc2)C1=O
emission maximum (in ClC(Cl)Cl): 552 nm | emission maximum [1]: 580 nm

SMILES: CCCCCOc1ccc2c(c1)c1ccc3cccc4c5cccc6oc(=O)c2c(c65)c1c34
emission maximum (in C1CCOC1): 462 nm

SMILES: CCOC(=O)CSc1nc2c(c(C#N)c1C#N)CCCC2
emission maximum (in c1ccccc1): 407 nm

SMILES: CN(C)c1ccc(/C=C2\CC/C(=C\c3ccc(N(C)C)cc3)C2=O)cc1
emission maximum (in C1CCOC1): 529 nm | emission maximum (in C1COCCO1): 493 nm | emission maximum (in CC#N): 587 nm | emission maximum (in CC(C)=O): 565 nm | emission maximum (in CC(C)O): 590 nm | emission maximum (in CCO): 613 nm | emission maximum (in CCOC(C)=O): 528 nm | emission maximum (in CN(C)C=O): 575 nm | emission maximum (in CO): 635 nm | emission maximum (in CS(C)=O): 588 nm | emission maximum (in Cc1ccccc1): 482 nm | emission maximum (in ClC(Cl)(Cl)Cl): 478 nm | emission maximum (in ClC(Cl)Cl): 543 nm | emission maximum (in ClCCl): 547 nm | emission maximum (in S=C=S): 497 nm

SMILES: CNc1ccc2nc3cc(Cl)c(Cl)cc3nc2c1
emission maximum (in CCO): 599 nm

SMILES: Cn1cccc1-c1ccc(C#N)cc1
emission maximum (in C1CCOC1): 383 nm | emission maximum (in CC#N): 407 nm | emission maximum (in CCCCCC): 357 nm | emission maximum (in CCCCOCCCC): 367 nm | emission maximum (in CCOCC): 371 nm

SMILES: c1ccc(-c2nc(-c3ccccc3)nc(-c3cc(-n4c5ccccc5c5ccccc54)cc(-n4c5ccccc5c5ccccc54)c3)n2)cc1
emission maximum (in C1CCCCC1): 409.39 nm | emission maximum (in C1CCOC1): 546.94 nm | emission maximum (in Cc1ccccc1): 475.1 nm

SMILES: [NH-]c1cc(N)cc(-c2nc3ccccc3s2)c1
emission maximum (in O): 484 nm

SMILES: CC1=CC(C)=[N+]2C1=C(c1ccccc1)c1c(C)cc(C)n1[B-]2(F)F
emission maximum (in C1CCOC1): 512 nm and 510 nm | emission maximum (in CC#N): 508 nm | emission maximum (in CC(=O)C(C)(C)C): 511 nm | emission maximum (in CC(C)=O): 509 nm | emission maximum (in CCCCCC): 511 nm | emission maximum (in CCOC(C)=O): 510 nm | emission maximum (in CO): 509 nm and 510 nm | emission maximum (in Cc1ccccc1): 516 nm | emission maximum (in ClCCl): 513 nm

SMILES: N#CC1=CC=CC(C#N)=P1(c1ccccc1)c1ccccc1
emission maximum (in ClC(Cl)Cl): 491 nm

SMILES: [C-]#[N+]c1ccc(-c2ccc(N)cc2)cc1
emission maximum (in C1CCCCC1): 354 nm | emission maximum (in C1CCOC1): 396 nm | emission maximum (in C1COCCO1): 383 nm | emission maximum (in CC#N): 410 nm | emission maximum (in CC(C)=O): 407 nm | emission maximum (in CCCCCC): 353 nm | emission maximum (in CCOC(C)=O): 397 nm | emission maximum (in CN(C)C=O): 423 nm | emission maximum (in CO): 419 nm | emission maximum (in CS(C)=O): 424 nm | emission maximum (in Cc1ccccc1): 371 nm | emission maximum (in ClC(Cl)Cl): 398 nm | emission maximum (in ClCCl): 390 nm | emission maximum (in O): 457 nm | emission maximum (in c1ccncc1): 415 nm

SMILES: CC[N+]1(CC)CN2C(=N1)C(C(=O)O)=Cc1ccc(C)cc12
emission maximum (in O): 457 nm

SMILES: CCCCN(CCCC)c1ccc(/C=C/c2ccc3c(c2)CCc2cc(/C=C/c4ccc(N(CCCC)CCCC)cc4)ccc2-3)cc1
emission maximum (in CS(C)=O): 536.5 nm | emission maximum (in Cc1ccccc1): 456.4 nm

SMILES: O=P1(c2ccccc2)c2ccc(N3c4ccccc4Oc4ccccc43)cc2-c2cc(N3c4ccccc4Oc4ccccc43)ccc21
emission maximum (in Cc1ccccc1): 535 nm | emission maximum [1]: 551 nm

SMILES: C(#Cc1ccc(N(c2ccc(C#Cc3ccc(-c4cc(-c5ccccc5)nc(-c5ccccc5)c4)cc3)cc2)c2ccc(C#Cc3ccc(-c4cc(-c5ccccc5)nc(-c5ccccc5)c4)cc3)cc2)cc1)c1ccc(-c2cc(-c3ccccc3)nc(-c3ccccc3)c2)cc1
emission maximum (in C1CCOC1): 455 nm | emission maximum (in Cc1ccccc1): 426 nm
